# Test results taken from patent publication US20050222402A1, “Dna encoding rat bombesin receptor subtype-3 (brs-3) and uses thereof” (priority 2001, published 2005).
# Non-standard residues stand in square brackets, D forms with d. Residues, ends and D or L forms follow the SMILES beside them. Nle = CCCC[C@H](N)C(=O)O; βAla = NCCC(=O)O
# Columns and labels:
# [1] = molecular target: T1, rat BRS-3 (Rattus norvegicus, UniProt Q8K418); assay: Phosphatidylinositol hydrolysis functional assay; type: cell-based
# T1 construct: utilized to PCR amplify full-length rat BRS-3 cDNA; expressed in transfected cells; host or cells: 293EBNA cells, pE3 expression vector
# T1 sequence (Q8K418 1-399): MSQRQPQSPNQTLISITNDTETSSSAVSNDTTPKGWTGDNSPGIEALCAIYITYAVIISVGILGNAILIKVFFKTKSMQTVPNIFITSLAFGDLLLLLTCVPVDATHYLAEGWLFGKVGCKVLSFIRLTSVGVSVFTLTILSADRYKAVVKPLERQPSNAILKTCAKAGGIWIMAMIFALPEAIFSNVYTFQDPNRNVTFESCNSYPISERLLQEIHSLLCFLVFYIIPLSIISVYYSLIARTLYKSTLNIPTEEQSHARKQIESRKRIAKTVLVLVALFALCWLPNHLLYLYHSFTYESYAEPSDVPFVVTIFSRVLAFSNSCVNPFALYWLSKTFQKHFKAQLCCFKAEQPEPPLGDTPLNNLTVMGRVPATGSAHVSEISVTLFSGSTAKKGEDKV
# Description: (§1) Wild type and mutant BRS-3 constructs were transfected by using lipofectamine reagents (Life Technologies, Rockville, Md.) into 293EBNA cells (Invitrogen, Carlsbad, Calif.) which support episomal replication of plasmid containing Epstein Bar virus OriP segment. Stable cell lines were obtained by selection with 250 ug/ml hygromycin. The cells were maintained as monolayers in Dulbecco's modified Eagle's medium (Life Technologies, Rockville, Md.) supplemented with 10% fetal bovine serum and incubated at 37° C. in a humidified 5% CO2 incubator.
# The functional properties of rat BRS-3 were characterized in transfected 293EBNA cells. The transfected 293EBNA cells were plated onto poly-D-lysine coated 12-well plates and incubated in the medium containing 2 uCi/ml [^3H]myo-inositol. The cells were labeled for 48 hrs, and subsequently incubated for 30 minutes in Hank's balanced salt solution containing 10 mM HEPES, 0.1% BSA and 10 mM LiCl.
# Since a natural agonist of BRS-3 has not been found, members of the bombesin-like peptide family, including GRP, NMB, bombesin and dYB, were used to stimulate the transfected cells described above, in the same buffer, for 1 hr at 37° C. The reaction was stopped by removal of medium and addition of 10 mM formic acid. The inositol monophosphate fraction was then isolated by anion chromatography as described (Berridge et al. Biochem. J. 212: 473-482 (1983), which is hereby incorporated by reference).
# [2] = molecular target: T1, rat BRS-3; assay: Calcium mobilization assay (FLIPR), transfected 293EBNA cells; type: cell-based
# Description: as §1
# (§2) The functional activity of rat BRS-3 was also studied by measuring the agonist-induced calcium mobilization response using a Fluorescence Imaging Plate Reader (Molecular Devices, Sunnyvale, Calif.). Transfected 293EBNA cells were plated onto poly-D-lysine coated 96-well plates with black wall and clear bottom (Becton Dickinson, Franklin Lakes, N.J.). After 16-48 hr culture, the cells were loaded with 4 uM Fluo-3-AM fluorescent calcium-indicator dye (Molecular Probes, Eugene, OR) in assay buffer (Hank's balanced salts solution, 10 mM HEPES, pH7.4, 0.1% bovine serum albumin, 2.5 mM probenecid).
# (§3) The changes in intracellular calcium concentration, as indicated by Fluo-3 fluorescence, were immediately measured by FLIPR. Maximal changes in fluorescence over base line were used to determine agonist response.
# (§4) The EC50 values were mean±S.E. calculated from dose-response curves of 3-5 repeated experiments using FLIPR assays.
# [3] = molecular target: T1, rat BRS-3; assay: Radioligand binding assay with 125I-dYB
# Description: (§5) Peptide dYB (dY-Q-W-A-V-(beta-A)-H-F-Nle-amide) (SEQ ID NO:10) was made by Research Genetics (Huntsville, Ala.) and custom labeled by NEN Life Science (NEN, Boston, Mass.) with a ^125I on the dY phenyl ring. The specific activity of ^125I-dYB is 2200 ci/mmol. The 293EBNA cells expressing wild type or mutant BRS-3 grown in 150-mm^2 dishes were harvested in binding buffer (50 mM HEPES, pH 7.4, 5 mM MgCl2, 0.1% BSA) and disrupted with Dounce homogenization.
# (§6) After removal of cell nuclei by a low speed centrifugation (1000×g) step, the cell membrane proteins were collected by centrifugation at 35,000×g for 20 minutes. The membrane protein concentration was determined by the Bradford method using BSA as standard.
# (§7) For binding assays, ˜20 ug membrane proteins were incubated with 0.25 nM ^125I-dYB and various concentrations of competitors in 200 ul binding buffer. After a 2 hr incubation at room temperature, the binding reaction was terminated by filtering through a GF/c filter-mate and washing the filter with binding buffer using Packard 96-well Topcount Harvester. The amount of radioligand bound to the receptor was determined by measurement of the radioactivity on the filter through liquid scintillation counting. The non-specific binding was defined as the binding in the presence of 1 uM unlabeled dYB.
# [4] = test system: human bombesin receptor subtypes, including human BRS-3; details: Pradhan et al. 1998; Ryan et al. 1998; cited from earlier work
# [5] = molecular target: T2, human BRS-3 (Homo sapiens, UniProt P32247); assay: Calcium mobilization assay (FLIPR), transfected 293EBNA cells; type: cell-based
# T2 construct: expressed in transfected cells; host or cells: 293EBNA cells, pE3 expression vector
# T2 sequence (P32247 1-399): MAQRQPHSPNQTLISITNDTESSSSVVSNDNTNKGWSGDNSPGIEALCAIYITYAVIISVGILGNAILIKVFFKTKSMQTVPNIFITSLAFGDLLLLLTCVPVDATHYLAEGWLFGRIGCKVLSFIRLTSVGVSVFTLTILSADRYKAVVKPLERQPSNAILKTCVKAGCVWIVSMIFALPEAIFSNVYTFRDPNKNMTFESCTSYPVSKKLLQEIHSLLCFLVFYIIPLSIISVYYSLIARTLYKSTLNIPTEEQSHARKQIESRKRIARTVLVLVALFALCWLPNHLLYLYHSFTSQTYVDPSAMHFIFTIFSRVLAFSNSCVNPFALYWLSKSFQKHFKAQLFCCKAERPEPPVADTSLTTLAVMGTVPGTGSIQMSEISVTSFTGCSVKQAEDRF
# Description: as §2, §3, §4
# [6] = molecular target: T2, human BRS-3; assay: Radioligand binding assay with 125I-dYB
# Description: as §5, §6, §7
SMILES,increase in PI hydrolysis [1] [fold],stimulation of phosphatidylinositol (PI) hydrolysis (inositol monophosphate production) [1],difference in dYB potency between human and rodent BRS-3 [2],lower affinity of rat BRS-3 to dYB than human BRS-3 [2],specific binding to rat BRS-3 [3],affinity and potency reported [4],EC50 [2] [nM],EC50 [5] [nM],Ki [6] [nM]
"CCCC[C@H](NC(=O)[C@H](Cc1ccccc1)NC(=O)[C@H](Cc1c[nH]cn1)NC(=O)CCNC(=O)[C@@H](NC(=O)[C@H](C)NC(=O)[C@H](Cc1c[nH]c2ccccc12)NC(=O)[C@H](CCC(N)=O)NC(=O)[C@H](N)Cc1ccc(O)cc1)C(C)C)C(N)=O [dYB, [D-Tyr6-betaAla11-Phe13-Nle14] bombesin (6-14)] (H-[dY]QWAV[βAla]HF[Nle]-NH2)",9,significant increase,approximately 1000 fold,approximately 1000 fold,undetectable,nanomolar high affinity and high potency,,,
"CCCC[C@H](NC(=O)[C@H](Cc1ccccc1)NC(=O)[C@H](Cc1cnc[nH]1)NC(=O)CCNC(=O)[C@@H](NC(=O)[C@H](C)NC(=O)[C@H](Cc1c[nH]c2ccccc12)NC(=O)[C@H](CCC(N)=O)NC(=O)[C@H](N)Cc1ccc(O)cc1)C(C)C)C(N)=O [dYB, [D-Tyr6-betaAla11-Phe13-Nle14] bombesin (6-14)] (H-[dY]QWAV[βAla]HF[Nle]-NH2)",,,,,,,2200 ± 500,1.2 ± 0.4,1.8 ± 0.6
